{"source": "patent US10292992B2", "about": "“Selective high-affinity polydentate ligands and methods of making such” (LAWRENCE LIVERMORE NATIONAL SECURITY, LLC, priority 2008, dated 2019)", "key": {"[1]": {"tested_on": "Raji cells expressing HLA-DR10", "test": "Whole cell binding assay with 111In-labeled SHAL", "assay_type": "cell-based, human", "settings": "for SHAL bound by Raji cells relative to parent SHAL: unwashed", "experimental": "Raji human Burkitt's lymphoma B-cells (American Type Culture Collection, Manassas, Va.) were maintained in RPMI-1640 media supplemented with 10% fetal bovine serum, 2mM L-glutamine, 1 mM sodium pyruvate, 1% of a solution of nonessential amino acids (GIBCO #11140-050), and 100 units/ml of Penicillin G, 100 μg/ml Streptomycin, and 0.25 μg/ml of Amphotericin B at 37° C. in a humidified 5% CO2 atmosphere. Jurkat's cells (American Type Culture Collection, Manassas, Va.), an acute leukemia T-cell line, were maintained in the same medium with the addition of 10 mM 4-(2-hydroxyethyl)-1-piperazineethanesulfonic acid (HEPES).\nA series of experiments were conducted to quantify the uptake of the ^111In-labeled parent SHAL (DvLPBaPPP)2LLDo and its hexa-arginine analog (DvLPBaPPP)2LArg6AcLLDo by Raji cells, a cell line that has been previously shown to express the HLA-DR10 variant. The assays were conducted using aliquots containing 10^6 cells suspended in 150 μl of PBS with 5% bovine serum albumin (BSA). Aliquots of cells were treated with 0.1, 1, 5, 10 or 25 ng of ^111In-labeled (DvLPBaPPP)2LLDo or (DvLPBaPPP)2LArg6AcLLDo for one hour at both 4° C. and 22° C. The tubes containing the treated cells were centrifuged to separate the cell pellet from the supernatant and the two fractions were counted in a calibrated gamma well counter to determine the amount of bound and free SHAL. Half of the cell pellets were washed twice with PBS and incubated at 22° C. for 15 min before centrifuging them again. The pooled washes and washed cell pellets were subsequently counted in the gamma well counter to assess how much of the bound SHAL could be removed by washing.\nIn vitro cell binding experiments were conducted using ^111In-labeled parent SHAL and the hexa-arginine SHAL analog to quantify SHAL uptake and to evaluate the effect of adding the hexa-arginine tag. Uptake was assessed using Raji cells, a lymphoma cell line expressing HLA-DR10. Aliquots containing 10^6 cells were incubated with increasing amounts of SHAL containing ^111In labeled SHAL as a tracer, and cell-associated ^111In was measured before and after washing the cell pellets."}, "[2]": {"tested_on": "Raji xenografts", "test": "Efficacy in mice with Raji xenografts", "assay_type": "in vivo, athymic Balb/c nu/nu mice", "excerpt": "Seven- to nine-week old female, athymic Balb/c nu/nu mice (Harlan Sprague Dawley, Inc., Frederick, Md.) were maintained according to University of California animal care guidelines under pathogen-free conditions and on a normal ad libitum diet. Raji or Jurkat's cells harvested in log phase and having >95% viability were implanted (6×10^6 cells) subcutaneously in the lower abdomen 3-4 days after the mice were irradiated (400 cGy) to suppress xenograft rejection. When xenografts reached 20-500 mm3 by caliper measurement, the mice were sorted by xenograft volume into 4 groups: SHAL-treated mice with Raji xenografts, SHAL-treated mice with Jurkat's xenografts, untreated mice with Raji xenografts or untreated mice with Jurkat's xenografts. Each mouse was injected with 100 μl of PBS or 100 ng DOTA-chelated tridentate SHAL i.p. on days 0, 7 and 14. Xenograft volume and survival were monitored for ≥84 days. The mice were also weighed 2-3 times each week for 4 weeks then weekly. Blood counts were measured prior to each SHAL or PBS dose and weekly for 4 weeks after the final dose using a Z Series Coulter Counter (Beckman Coulter Inc., Hialeah, Fla.) and a phase contrast microscope (Zeiss, Jena, Germany).\nXenograft volumes were calculated by the formula for hemiellipsoids (DeNardo et al. (1997) Clin. Cancer Res. 3: 71-79). […] If a xenograft became >2000 mm3, the mouse was euthanized in accordance with University of California animal care guidelines and scored as a disease-related death.\nInitial analysis compared response rates by exact tests and survival times by log-rank tests for untreated Raji and Jurkat's mice and found no significant differences, so these groups were pooled for subsequent analysis. Response rates for treated Raji, treated Jurkat's and untreated mice were compared by x^2 and exact tests. Survival times were censored at 84 days for mice who had not died or been euthanized because of tumor growth before that time. Times were summarized descriptively by Kaplan-Meier curves and median survival and 95% confidence limits were obtained by the product-limit estimate. The two treated groups were compared to the untreated using a log-rank test for homogeneity across groups, followed by a proportional hazards model to estimate the effect of treatment compared to no treatment. Analyses were carried out using SAS/SAT® software (SAS Institute, Inc. SAS/STAT Version 9.0. 2004. Cary, N.C.: SAS Institute). All tests were two-sided at level 0.05."}, "[3]": {"test": "General safety study in healthy mice", "assay_type": "in vivo", "settings": "4 weeks; for adverse effects / toxicity: up to 2000 times the efficacy dose i.p.", "experimental": "Each of 3 groups of 7 healthy Balb/c mice were given PBS, 20 or 200 μg of DOTA-chelated SHAL i.p., that is, 200 or 2,000 times the SHAL efficacy dose. Immediately prior to intervention, the mice were observed, weighed and blood counts (red, white and platelets) obtained, then the mice were observed daily, weighed 3 times each week and blood counts measured weekly for 4 weeks after intervention."}, "[4]": {"tested_on": "Raji xenografts", "test": "Electron microscopy of Raji xenografts after SHAL treatment", "assay_type": "in vivo, mice", "settings": "after 100 ng of biotinylated SHAL", "experimental": "Raji xenografts (53-132 mm^3) were harvested for EM from mice, untreated (control) and 2, 4 or 24 h after 100 ng of biotinylated SHAL."}}, "note": "Entries after “also recorded” stand apart in the source; their conditions may differ.", "data": [{"molecule": "CC(=O)NC(CCCNC(=N)N)C(=O)NC(CCCNC(=N)N)C(=O)NC(CCCNC(=N)N)C(=O)NC(CCCNC(=N)N)C(=O)NC(CCCNC(=N)N)C(=O)NC(CCCNC(=N)N)C(=O)NCCCCC(NC(=O)C(CCCCNC(=O)COCCOCCNC(=O)COCCOCCNC(=O)COCCOCCNC(=O)C(CCCCNC(=O)COCCOCCNC(=O)c1ccc(NC(=O)C(CCCNC(=N)N)NC(=O)c2ccccc2)cc1)NC(=O)C(NS(=O)(=O)c1ccc(N=Nc2ccc(N(C)C)cc2)cc1)C(C)C)NC(=O)COCCOCCNC(=O)COCCOCCNC(=O)COCCOCCNC(=O)C(CCCCNC(=O)COCCOCCNC(=O)c1ccc(NC(=O)C(CCCNC(=N)N)NC(=O)c2ccccc2)cc1)NC(=O)C(NS(=O)(=O)c1ccc(N=Nc2ccc(N(C)C)cc2)cc1)C(C)C)C(=O)NC(CCCCNC(=O)CN1CCN(CC(=O)O)CCN(CC(=O)O)CCN(CC(=O)O)CC1)C(=O)O", "note": "(centres unmarked) [(DvLPBaPPP)2LArg6AcLLDo]", "values": [{"measurement": "pmoles SHAL Bound/10^6 cells unwashed", "setting": "[1]; 5.3 pmoles of 111In-labeled SHAL, unwashed cell pellets", "result": "1.300 ± 0.038 pmoles SHAL Bound/10^6 cells"}, {"measurement": "pmoles SHAL Bound/10^6 cells Washed", "setting": "[1]; 5.3 pmoles of 111In-labeled SHAL, washed two times with BSA/buffer", "result": "0.876 ± 0.017 pmoles SHAL Bound/10^6 cells"}, {"measurement": "SHAL remaining associated with Raji cells after washing relative to parent SHAL", "setting": "[1]; 111In-labeled, after washing, listed as hexa-arginine SHAL", "result": "Three fold more; also recorded: three times"}, {"measurement": "SHAL bound by Raji cells relative to parent SHAL", "setting": "[1]; 111In-labeled, listed as hexa-arginine SHAL", "result": "twice as much"}, {"measurement": "SHAL bound by Raji cells relative to parent SHAL", "setting": "[1]; 111In-labeled, listed as hexa-arginine SHAL analog", "result": "two fold more"}, {"measurement": "proportion of SHAL retained by the cells after washing", "setting": "[1]; Raji cells, after washing", "result": 67, "unit": "%"}, {"measurement": "Percent SHAL Retained", "setting": "[1]; after washing two times", "result": 67, "unit": "%"}, {"measurement": "amount of residualized SHAL", "setting": "[1]; highest concentration tested", "result": "~1.1×10^6 SHAL molecules per cell"}]}, {"molecule": "CC(C)C(NS(=O)(=O)c1ccc(N=Nc2ccc(N(C)C)cc2)cc1)C(=O)NCCOCCOCC(=O)NC(CCCCNC(=O)C(CCCCNC(=O)CC(=O)Nc1ccccc1Oc1ncc(C(F)(F)F)cc1Cl)NC(=O)COCCOCCNC(=O)c1ccc(N2CCN(Cc3ccc(Cl)cc3)CC2)c([N+](=O)[O-])c1)C(=O)NCCOCCOCC(=O)NC(CCCCNC(=O)CN1CCN(CC(=O)O)CCN(CC(=O)O)CCN(CC(=O)O)CC1)C(=O)O", "note": "(centres unmarked) [tridentate SHAL]", "values": [{"measurement": "ORR (overall response rate)", "setting": "[2]; 100 ng DOTA-chelated tridentate SHAL i.p. days 0, 7 and 14", "result": 77, "unit": "%"}, {"measurement": "Cure", "setting": "[2]; 100 ng DOTA-chelated tridentate SHAL i.p. days 0, 7 and 14, censored at 84 days", "result": 69, "unit": "%"}, {"measurement": "overall survival (FIG. 31)", "setting": "[2]; 100 ng SHAL i.p. once weekly for 3 consecutive weeks", "result": "longest survival"}, {"measurement": "median survival time", "setting": "[2]; 100 ng SHAL i.p. weekly x3, censored at 84 days", "result": "not estimable"}, {"measurement": "xenograft response in one mouse (FIG. 30)", "setting": "[2]; by three weeks after the initial 100 ng dose i.p.", "result": "completely regressed"}, {"measurement": "persistence of cures", "setting": "[2]; cures at 84 days", "result": "persisted over a 210-day observation time"}, {"measurement": "reduction in hazard of death", "setting": "[2]; treated Raji mice compared to untreated and treated Jurkat's mice, proportional hazards model", "result": 85, "unit": "%"}, {"measurement": "time at which regression began after initial SHAL treatment", "setting": "[2]; treated Raji xenografts", "result": "~7", "unit": "days"}, {"measurement": "time to complete remission after initial SHAL treatment", "setting": "[2]; treated Raji xenografts", "result": "~30", "unit": "days"}, {"measurement": "body weight", "setting": "[3]; 20 or 200 μg DOTA-chelated SHAL i.p. (200 or 2,000 times efficacy dose)", "result": "gained weight"}, {"measurement": "blood counts", "setting": "[3]; 20 or 200 μg DOTA-chelated SHAL i.p.", "result": "stable blood counts"}, {"measurement": "adverse effects / toxicity", "setting": "[3]", "result": "no evidence for toxicity; also recorded: did not exhibit signs of adverse events"}, {"measurement": "adverse effects / toxicity", "setting": "[3]; listed as SHAL", "result": "no adverse effects"}, {"measurement": "electron microscopy findings in xenograft cells", "setting": "[4]", "result": "highly condensed nuclear chromatin and fragmented organelles"}, {"measurement": "electron microscopy findings in xenograft cells", "setting": "[4]; listed as SHAL", "result": "condensed and fragmented chromatin and loss of cytoplasmic structures consistent with autophagic death"}]}]}
